What was measured:
[1] = system: P. falciparum 3D7 laboratory strain; test: proliferation and life cycle of P. falciparum 3D7 at blood stage in vitro (Giemsa staining, FACS); format: cell-based; details: for life cycle of P. falciparum (microscopic observation, Giemsa staining): 24 and 48 hours after infection; for transition to schizont stage / schizont formation: in vitro culture
Protocol: Then, an effect of the AP2-PIPA on proliferation of a P. falciparum 3D7 laboratory strain at a blood stage in vitro was examined. Human red blood cells were infected with P. falciparum and cultured in the presence or absence of the AP2-PIPA. Microscopic observation with Giemsa staining and quantitative count of parasites and their stages by FACS analysis were performed at 24 and 48 hours after the infection.

[2] = system: artemisinin-resistant plasmodium strain, various Plasmodium strains; test: proliferation of artemisinin-resistant and other Plasmodium strains in human red blood cells in vitro; format: cell-based; details: 72 hours after infection
Protocol: Plasmodia were cultured in red blood cells in the presence of various concentrations of a PIPA and, 72 hours later, parasitemia was assessed;
An effect of the AP2-PIPA on proliferation of an artemisinin-resistant strain in vitro was further examined (FIG. 4). Human red blood cells were infected with various Plasmodium strains and cultured in the presence or absence of the AP2-PIPA at various concentrations. Parasitemia was evaluated at 72 hours after the infection to verify a degree of proliferation of Plasmodium treated with various concentrations of the AP2-PIPA, and an IC50 value for the AP2-PIPA in each Plasmodium strain was calculated from the above results. As a result, the AP2-PIPA1 inhibited proliferation of the artemisinin-resistant plasmodium strain with a lower IC50.

Plasmodium spp. = details: known; cited from earlier work
[3] = molecular target: dsDNA containing the target sequence TGCATG (SEQ ID NO: 1), AP2-Sc binding sequence; test: binding affinity of PIPA to dsDNA containing the target sequence; design: species or system P. falciparum
Protocol: FIG. 1b is a schematic diagram showing a DNA fragment used in one embodiment of the present disclosure to analyze a binding strength of AP2-PIPA1 to its target sequence;
(§1) Next, a binding affinity of a PIPA to dsDNA containing the target sequence for the AP2-PIPA (FIG. 1b) was verified. As designed, the AP2-PIPA1 was bound to the target sequence with a high binding activity, that is, a Kd value of 4.0 nM (FIG. 1c). Consistent with previous reports of low off-target toxicity of a PIPA, the AP2-PIPA was not toxic in either mouse cell lines (Raw264.7 cells, NIH3T3 cells) or human cell lines (U937 cells, A549 cells) (FIG. 2a and FIG. 2b). These analysis results support safety of a PIPA at least in the dose range in vitro.

[4] = system: Raw264.7 cells, NIH3T3 cells; test: cytotoxicity in mouse cell lines (DNA release, LDH activity in culture supernatant); format: cell-based; details: mouse cell lines Raw264.7, NIH3T3; DNA release and LDH activity in culture supernatant
Protocol: as §1

U937 cells, A549 cells = test: cytotoxicity in human cell lines (DNA release, LDH activity in culture supernatant); format: cell-based; details: DNA release and LDH activity in culture supernatant
Protocol: as §1

[5] = toxicity of a single intraperitoneal administration in mice; format: in vivo
Protocol: (§2) Toxicity of a single intraperitoneal administration of AP2-PIPA1 was studied in mice. […] Observation of viability and general conditions, measurement of body weight, a hematology test, a blood chemistry test, and necropsy were performed as toxicity assessment indices. […] However, the value for each individual in these groups falls within a background value (34 to 58 IU/L) and thus the changes are determined to be due to physiological variation.
as §2, with “Furthermore, toxicity of a” for “Toxicity of a”, “administration of the AP2-PIPA1 was” for “administration of AP2-PIPA1 was”

[6] = toxicity of multiple administrations in mice; format: in vivo; details: once daily for 7 days orally or intraperitoneally
Protocol: Mice received various doses of AP2-PIPA1 once daily for 7 days orally or intraperitoneally. On day 8, blood was collected and AST and ALT were measured. Significant difference tests were performed for the 3 mg/kg and 10 mg/kg dose groups relative to the control group for each route of administration.
Furthermore, toxicity of multiple administrations of the AP2-PIPA1 was studied in mice. Mice received various doses of the AP2-PIPA1 once daily for 7 days orally or intraperitoneally. On day 8, blood was collected and AST and ALT were measured (FIG. 5b). Significant difference tests were performed for the 3 mg/kg and 10 mg/kg dose groups relative to the control group for each route of administration.

[7] = system: Plasmodium berghei strain; test: mouse infection experiment, parasitemia; format: in vivo; details: intraperitoneal
Protocol: Furthermore, an effect of the AP2-PIPA1 was verified in a mouse infection experiment. Mice were infected with a Plasmodium berghei strain and received the AP2-PIPA1 intraperitoneally at each time point (day 1, day 2, day 3, day 4, day 5, day 6, and day 7) shown in the upper schematic diagram in FIG. 6. Blood was collected at 11 or 13 days after the infection to assess parasitemia. […] Multiple administrations of a high dose, i.e., 30 mg/kg are believed to cause toxicity.

[8] = system: artemisinin-resistant plasmodium (Pf lek122); test: malaria treatment in humanized mice infected with artemisinin-resistant plasmodium; format: in vivo; details: i.p. on days 21-25, humanized NOG-SCID mice
Excerpt: AP2-PIPA1, which was designed in the same manner as in Example 1, was used to verify an inhibitory effect in vivo. Mice wherein red blood cells had been replaced with human red blood cells were infected with an artemisinin-resistant plasmodium and a therapeutic effect was examined in the thus-infected mice. The effect was verified in the case of administration of a PIPA alone and the case of combined administration with artemisinin.
Humanized mice were created by injecting human red blood cells (RBCs) into NOG-SCID mice. One milliliter of 50% HCT, A+ve red blood cells prepared with 0.5% Albumax and 3.1 mM hypoxanthine was injected into the NOG-SCID mice once daily for 3 weeks until 80% of the human red blood cells were established. The humanized mice were then infected with an artemisinin-resistant plasmodium (Pf lek122) by 4×10^7 RBCS infected with synchronized ring-stage parasites, and checked for parasitemia by determining a rate of Giemsa-stain positive RBCs from the infected mice. On days 21, 22, 23, 24, and 25, AP2-PIPA1 (AP2-1), artemisinin, or both were injected i.p. at the indicated dose.

[9] = single intraperitoneal administration 5, 10, 20 mg/kg, observed 7 days
[10] = 3 and 10 mg/kg vs control, blood on day 8
[11] = 30 mg/kg dose group, multiple administrations

For `CC(=O)Nc1cc(C(=O)Nc2cc(C(=O)NCCC(=O)Nc3cn(C)c(C(=O)Nc4cc(C(=O)NCCCC(=O)Nc5cn(C)c(C(=O)Nc6cc(C(=O)Nc7cc(C(=O)NCCC(=O)Nc8cc(C(=O)NCCC(=O)NCCCN(C)C)n(C)c8)n(C)c7)n(C)c6)n5)n(C)c4)n3)n(C)c2)n(C)c1` [AP2-PIPA2], the “life cycle of P. falciparum (microscopic observation, Giemsa staining)” value ([1]; human red blood cells) was “thought to be effective at a higher concentration range than that used in this experiment” and the “inhibitory effects on proliferation (parasitemia)” value ([2]; any of the Plasmodium strains) was “no inhibitory effects”.

In the case of `Cc1nccnc1N1CCN(S(=O)(=O)c2ccc(-c3ccc(=O)[nH]n3)s2)CC1` [MBX-4055], the “proliferation of Plasmodium spp.” value (Plasmodium spp.) is listed as “known to inhibit proliferation of Plasmodium spp”.

For `CC(=O)Nc1cc(C(=O)Nc2cc(C(=O)NCCC(=O)Nc3cn(C)c(C(=O)Nc4cc(C(=O)NCCCC(=O)Nc5cn(C)c(C(=O)Nc6cc(C(=O)Nc7cc(C(=O)NCCC(=O)Nc8cc(C(=O)NCCC(=O)NCCCN(C)C)n(C)c8)n(C)c7)n(C)c6)n5)n(C)c4)n3)n(C)c2)n(C)c1` [AP2-PIPA1], the Kd [3] was 4 nM, the “toxicity (cytotoxicity)” value [4] was “not toxic” and the “toxicity (cytotoxicity)” value (U937 cells, A549 cells) was “not toxic”. The AST activity ([5]; mouse, in vivo, ip, 10 mg/kg) was “an upward trend was observed”, the deaths [5, 9] was “No deaths were observed” and the “general conditions, weight change, hematology test, blood chemistry test, autopsy” value [5, 9] was “no changes that were considered to be abnormal were found”. The minimum lethal dose ([5]; single intraperitoneal administration, mice) was “greater than 20 mg/kg”, the “toxicity of multiple administrations” value ([6]; dose range examined) was “not prominently toxic” and the ALT [6, 10] was “no significant difference”. The AST [6, 10] was “no significant difference”, the “life cycle of P. falciparum (microscopic observation, Giemsa staining)” value ([1]; human red blood cells) was “arrested a life cycle of P. falciparum at a trophozoite stage” and the “morphological change (FACS analysis)” value ([1]; human red blood cells, at both 24 and 48 hours after infection) was “a morphological change was arrested at the trophozoite stage”. The “transition to schizont stage / schizont formation” value [1] was “specifically inhibits transition to a schizont stage”, the “transition to schizont stage / schizont formation” value ([1]; listed as AP2-PIPA) was “strongly inhibit schizont formation” and the “IC50, proliferation (parasitemia)” value ([2]; artemisinin-resistant plasmodium strain) was “lower IC50”. For the same compound, the mouse death [7, 11] was “mouse death”, the parasitemia [7, 11] was “suppression of parasitemia” and the parasitemia ([7]; day 1 to day 7, blood at 11 or 13 days after infection) was “dose-dependent suppression of parasitemia”. The “therapeutic effect on malaria infection (parasitemia)” value (from here on “therapeutic effect”) ([8]; administration alone) was “a therapeutic effect on malaria infection was confirmed” and the “therapeutic effect” value ([8]; combined administration with artemisinin) was “a therapeutic effect on malaria infection was confirmed”.

In the case of `C[C@@H]1CC[C@H]2[C@@H](C)C(=O)O[C@@H]3O[C@@]4(C)CC[C@@H]1[C@]32OO4` [artemisinin, reference compound], the “therapeutic effect” value ([8]; administration alone) is reported as “an effect of artemisinin could not be observed”.

Reference: US20250250567A1, “PROTOZOA TRANSCRIPTION FACTOR INHIBITOR” (priority 2022, published 2025)
